Here are results for 3 molecules from patent US10711278B2, “Genetically altered alfalfa producing clovamide and/or related hydroxycinnamoyl amides” (The United States of America, as represented by the …, priority 2015, dated 2020).

The conditions of experiment [1]: cited from earlier work.
Experiment [2] is described as follows: In-vitro hydroxycinnamoyl-CoA transferase activity of soluble E. coli extracts expressing HDT1 or HDT2, HPLC of products. Format: biochemical, Trifolium pratense. The settings on record: expressed in E. coli; p-coumaroyl-, caffeoyl-, and feruloyl-CoA. The source says: Plasmids containing full-length red clover HDT coding regions (both HDT1 (SEQ ID NO: 1) and HDT2 (SEQ ID NO: 3)) were used as templates in PCR reactions with primers designed to introduce an […] restriction site at the start codons (ms886—SEQ ID NO: 13) and an XhoI site immediately following the stop codon (ms887—SEQ ID NO: 14) of each open reading frame. The resulting PCR products were digested with NcoI and XhoI and inserted into pET28a (Novagen, Madison, Wis.) digested with NcoI and XhoI. The insert is operably linked to the IPTG-inducible promoter contained in pET28. Each plasmid was sequenced to confirm correct sequence was generated.
Each pET28 derivative containing HDT coding regions (pET28-HDT1 and pET28-HDT2) or pET28 (as a negative control) were transformed, individually, into BL21(DE3)RIL Codon Plus E. coli (Agilent Technologies, Santa Clara, Calif.). […] The soluble fraction was isolated, divided into single use aliquots, flash frozen in liquid nitrogen and stored at −80° C. until ready to use. […]
The supernatant is analyzed for reaction products by HPLC. […]

In the case of “hydroxycinnamoyl-CoA:malate hydroxycinnamoyl transferase [HMT]”, the HDT activity entry in experiment [1] (HCT2 gene product produced in E. coli) is “does not have HDT activity”. For the same molecule, the “preference for p-coumaroyl-CoA and feruloyl-CoA donor substrates over caffeoyl-CoA” value in experiment [1] (in-vitro) is “five- to tenfold”.

B1: hydroxycinnamoyl-CoA:L-DOPA/tyrosine hydroxycinnamoyl transferase 1 (protein)
chain: MVTIIASHTVIPEEPTPQGPFWLSDMDQVVRIRDVPTLYIYKTPKKNQENKNIVETFKNSLSKILVHYYPIAGRLCYIEGGRLELNLNAKGAILVEAETEKTMNDYGDFSHFDTIKELVPMIDYNQPIEEIPNFVVQLTNFKNNEGFAIGVAFLHPLSDGLGAIKFINSWAKIARGETLEANELPFLDRKLLKFSHTPLEPRFEHLELKPLPLILGRKDASEEKEKKTSATLLKLSSEQVDKLKKKANEEDVLGIQKKEYSRPYSKFEVISAHIWRCASKARELEDNQESVIRFIADVKNRMIPPLPKNYFGNALTQTATKGYIGEITSKPLGYVAQKIREATELINDEYIRSQIDVVRSFEHLDDARKMFIGEKARYFGNPNFNLTSWLSMPVYEADFGWGKPNYFGLADVSPHDRAVILLSPDDDGSVLVSFHFQIAHMELFNKYFYEEI
modifications: Trifolium pratense
On to B1, for which the “transfer of trans-hydroxycinnamoyl moiety from CoA derivative to L-DOPA or L-tyrosine” value in experiment [2] is on record as “capable of transferring a trans-hydroxycinnamoyl moiety”.

B2: hydroxycinnamoyl-CoA:L-DOPA/tyrosine hydroxycinnamoyl transferase 2 (protein)
chain: MVTIIASHTVIPEEPTPQGPFWLSDMDQVVRIRDVPTLYIYKTPKKNQENKNIVETFKNSLSKILVHYYPIAGRLCYIEGGRLELNLNAKGAILVEAETEKTMNDYGDFSHFDTIKELVPMIDYNQPIEEIPNFVVQLTKFKNNEGFAIGVAFLHPLSDGLGAIKFINSWAKIARGETLEANELPFLDRKLLKFSHTPLEPRFEHLELKPLPLILGRKDASEEKEKKTSATLLKLSSEQVDKLKKKANEEDVLGVQKKEYSRPYSKFEVISAHIWRCASKARELKDNQESVIRFIADVKNRMIPPLPKNYFGNALTQTATKGYIGEITSKPLGYVAQKIREATELVNDEYIRSQIDVVRSFEHLDDARKMFIGEKARYFGNPNFNLTSWLSMPVYEADFGWGKPNYFGLADVSPHDRAVILLSPDDDGSVLVSFHLQIAHMELFNKYFYEEI
modifications: Trifolium pratense
In the case of B2, in experiment [2], the “transfer of trans-hydroxycinnamoyl moiety from CoA derivative to L-DOPA or L-tyrosine” value is on record as “capable of transferring a trans-hydroxycinnamoyl moiety”.
